Experimental data: article PMC6286365 (Scientific Reports, 2018)
“Also recorded” adds a separate entry of the source.

Legend:
GFAP-GFP mice [1] = test: Striatal IL-1β brain inflammation model: GFP-labeled astrocyte-derived EVs in plasma; assay type: in vivo, mouse; details: 10 mg/kg IP 0.5 h before IL-1β; 2 h post IL-1β
Method: As we have previously shown[11],[18], striatal injection of IL-1β in mice expressing GFP-GFAP in astroglia triggers a release of GFP-labelled EVs that rapidly enter into plasma, resulting in cytokine upregulation in liver and peripheral immune cell migration into brain[11]. […] There were two groups of mice: the first group was sacrificed 2 h after IL-1β administration by heart puncture, and GFP-labeled circulating EVs were measured with liver cytokines. […] Counting of astrocyte-released EV (GFP+) from blood and liver cytokine analysis was conducted by single injection of DPTIP. Although release of EVs from astrocytes can be initiated immediately after intracranial injection of IL-1β, infiltration of neutrophils in brain parenchyma occurred 12h-24h after the IL-1β injection. […] Western analysis using the isolated exosomal fraction confirmed the presence of CD63 (transmembrane protein), TSG101 (cytosolic protein) and Flotilin-1 (lipid raft associated protein), commonly used EV markers[19],[20]. The GFP signal was an indication that these EVs originated in brain[11] while lack of mitofilin and α-actinin signals indicated the vesicles were not of mitochondrial[21] or cytoskeletal[22] origin respectively (Fig. 6B).
(§1) Compounds were given 0.5 h before IL-1β dosing. One group of mice was sacrificed 2 h after IL-1β administration to determine effects of the various treatments on extracellular vesicles (EVs) releases from brain and liver cytokine analysis. […] (C) Liver cytokine levels under different treatments as measured by qRT-PCR of RNA isolated from fresh frozen liver tissue. Samples were analyzed in triplicate. **p < 0.01 and *p < 0.05 compared to saline control; ^##p < 0.01 and ^#p < 0.05 compared to IL1-β group. (D) Neutrophil levels in brain as measured by immunohistochemistry using coronal brain sections and Ly6b antibody. (E) Quantitation of (D); **p < 0.01 compared to saline control; ^##p < 0.01 compared to IL1-β group. […]

GFAP-GFP mice [2] = test: Striatal IL-1β brain inflammation model: liver cytokines by qRT-PCR; assay type: in vivo, mouse; details: 10 mg/kg IP; 2 h post IL-1β
Method: As we have previously shown[11],[18], striatal injection of IL-1β in mice expressing GFP-GFAP in astroglia triggers a release of GFP-labelled EVs that rapidly enter into plasma, resulting in cytokine upregulation in liver and peripheral immune cell migration into brain[11]. […] There were two groups of mice: the first group was sacrificed 2 h after IL-1β administration by heart puncture, and GFP-labeled circulating EVs were measured with liver cytokines. […] Counting of astrocyte-released EV (GFP+) from blood and liver cytokine analysis was conducted by single injection of DPTIP. Although release of EVs from astrocytes can be initiated immediately after intracranial injection of IL-1β, infiltration of neutrophils in brain parenchyma occurred 12h-24h after the IL-1β injection. […]
as §1, with “dosing.” for “dosing. One group of mice was sacrificed 2 h after IL-1β administration to determine effects of the various treatments on extracellular vesicles (EVs) releases from brain and liver cytokine analysis.”

Question: How did the “reduction of number of astrocyte-derived EVs” value (GFAP-GFP mice [1]) turn out when `COc1cc(-c2nc(-c3cccs3)c(-c3ccccc3)[nH]2)cc(OC)c1O` [DPTIP, 2,6-Dimethoxy-4-(5-Phenyl-4-Thiophen-2-yl-1H-Imidazol-2-yl)-Phenol] was run?
Answer: The value was 51 ± 13%.

Question: And the “effect on upregulation of liver cytokines upon IL-1β treatment” value (GFAP-GFP mice [2])?
Answer: Its value is “reduction of cytokine upregulation in liver; also recorded: inhibited”.
